Reference: patent publication US20250154686A1, “COMPOUND LIBRARY” (CHUGAI SEIYAKU KABUSHIKI KAISHA, priority 2021, published 2025)

Target: T1, Bcl-2 protein (Recombinant Human Bcl-2 Protein) (Homo sapiens, UniProt P10415)
T1 construct: purchased Novus Biologicals NBP2-34889
Experiment: AS-MS evaluation of binding of the Example 4 mixture library (1200 compounds/well) to Bcl-2, ASMS ratio (%)
Protocol: DMSO solutions (prepared into approximately 0.58 mM based on calculation from the average molecular weight of each mixture) of 12 types of mixtures that could each contain 100 compounds, i.e., mixAI-B4J-01, mixAI-B1M-01, mixAI-B1K-01, mixAI-BIO-01, mixAI-B1A-01, mixAI-B3A-01, mixAI-B21-01, mixAI-B2L-01, mixAI-B2N-01, mixAI-B2A-01, mixAI-B2Q-01, and mixAI-B2R-01, shown in Table AI-03-B4J-01, Table AI-03-B1M-01, Table AI-03-B1K-01, Table AI-03-B10-01, Table AI-03-B1A-01, Table AI-03-B3A-01, Table AI-03-B21-01, Table AI-03-B2L-01, Table AI-03-B2N-01, Table AI-03-B2A-01, Table AI-03-B2Q-01, and Table AI-03-B2R-01 described in Example 4, were respectively dispensed to a total of 12 wells of MICROPLATE, 96-well, PP, V-BOTTOM (Greiner Bio-One International GmbH, 651201). 70 nL each from the 12 wells was collected into any one well using LABCYTE ECHO® 555 acoustic dispensing system (Beckman Coulter, Inc.) to prepare a sample solution in a mixed state of 1200 compounds (the presence of 1152 compounds was already identified when the mixtures were prepared in Example 4). Further, Bcl-2 protein (Novus Biologicals, NBP2-34889, Recombinant Human Bcl-2 Protein, Lot E60145051) (19.2 μL) prepared at 20.9 μM in advance using a Tris-HCl buffer (25 mM Tris-HCl, pH 7.4, 150 mM NaCl, 0.025% Tween-20, and 1 mM DTT) was added to the well containing the dispensed 1200 compounds (the presence of 1152 compounds was already identified when the mixtures were prepared in Example 4) (final compound concentration: 20 nM, final Bcl-2 concentration: 20 μM), and the plate was incubated at 23° C. for 1 hour in the dark. Subsequently, 200 μL of an assay buffer (25 mM Tris-HCl, pH 7.4, 150 mM NaCl, 0.025% Tween-20, and 1 mM DTT) was centrifuged three times at 2000×G at 4° C. for 2 minutes using 96-well MacroSpin column, P-2 Material (Harvard Bioscience, Inc., 74-5655) that had been allowed to swell to condition the 96-well MacroSpin column. Subsequently, 20 μL of the sample thus incubated was added to the 96-well MacroSpin column, P-2 Material after the completion of conditioning, and SEC treatment was performed by centrifugation at 2000×G for 2 minutes. 32 μL of a 1:1 mixed solution of acetonitrile and methanol (LC/MS grade, FUJIFILM Wako Pure Chemical Corp.) was added to a flow-through liquid from SEC, and the mixture was centrifuged at 1800×G at 4° C. for 5 minutes. The supernatant was used as analysis sample ASMS (A). By a similar operation, a sample prepared at 1200 compounds/well and supplemented with only a Tris-HCl buffer containing no Bcl-2 protein was incubated under the same conditions as above, and the same organic solvent as above was added thereto without 96-well MacroSpin column treatment. A supernatant obtained by a centrifugation operation was used as STD (B). Next, by a similar operation, a sample prepared at 1200 compounds/well and supplemented with only a Tris-HCl buffer containing no Bcl-2 protein was incubated under the same conditions as above and treated with 96-well MacroSpin column in the same manner as above, and the same organic solvent as above was added thereto. A supernatant obtained by a centrifugation operation was used as BK (C). These samples were measured by reverse-phase LC/MS.
Then, the samples A, B and C were analyzed for the 1200 compounds using TraceFinder 5.1 (Thermo Fisher Scientific Inc.) and CHANCE Software (in-house), and an ASMS ratio (%) was calculated according to the following expression.
Although m/z of the MS peaks was confirmed down to four decimal places, 0 at the decimal level may be omitted in the description in Table AJ-01. For example, “587.0000” is also referred to as “587”, “587.1000” is also referred to as “587.1”, “587.1200” is also referred to as “587.12”, and “587.1230” is also referred to as “587.123”.

[1] = AS-MS, Example 4 mixture library, Bcl-2, replicate n = 1
[2] = AS-MS, Example 4 mixture library, Bcl-2, replicate n = 2
[3] = replicate n = 1, mixture library, value belongs to the MS peak assigned to the compound
[4] = replicate n = 2, mixture library, value belongs to the MS peak assigned to the compound
[5] = AS-MS, mixture of 1200 compounds/well, Bcl-2 protein, replicate n = 1
[6] = AS-MS, mixture of 1200 compounds/well, Bcl-2 protein, replicate n = 2

T1 sequence (P10415 whole entry): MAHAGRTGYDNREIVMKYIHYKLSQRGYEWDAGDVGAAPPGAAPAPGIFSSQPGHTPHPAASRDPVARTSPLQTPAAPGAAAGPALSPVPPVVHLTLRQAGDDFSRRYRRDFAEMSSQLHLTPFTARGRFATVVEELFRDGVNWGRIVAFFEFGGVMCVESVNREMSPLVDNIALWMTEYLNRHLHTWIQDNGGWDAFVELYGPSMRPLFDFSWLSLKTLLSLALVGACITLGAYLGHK

SMILES	ASMS ratio (%) n = 1 [1] [%]	ASMS ratio (%) n = 2 [2] [%]	ASMS ratio (%) n = 1 [3] [%]	ASMS ratio (%) n = 2 [4] [%]	other results
CCOc1cncc(C#Cc2cc(C(=O)N3CCN(c4ccc(C(=O)NS(=O)(=O)CCC(F)(F)F)nn4)CC3)cc(C(F)(F)F)c2)c1 [Compound B2N020-01, 6-[4-[3-[2-(5-Ethoxypyridin-3-yl)ethynyl]-5-(trifluoromethyl)benzoyl]piperazin-1-yl]-N-(3,3,3-trifluoropropylsulfonyl)pyridazine-3-carboxamide]	0.0	0.0			
CCOc1cccc(-c2ccc(CN3CCN(c4ccc(C(=O)NS(C)(=O)=O)cc4)CC3)c(OC)c2)c1 [Compound B2I053-01, 4-[4-[[4-(3-Ethoxyphenyl)-2-methoxyphenyl]methyl]piperazin-1-yl]-N-methylsulfonylbenzamide]			0.0	0.0	
CCOc1cccc(-c2ccc(C(=O)N3CCN(c4ccc(C(=O)NS(=O)(=O)C(C)(C)C)cc4)CC3)cc2F)c1 [Compound B2L027-01, N-tert-Butylsulfonyl-4-[4-[4-(3-ethoxyphenyl)-3-fluorobenzoyl]piperazin-1-yl]benzamide]			0.0	0.0	
CCCNC(=O)c1ccc(N2CCN(Cc3cc(-c4cccc(OCC)c4)cs3)CC2)nn1 [Compound B1M093-01]					ASMS ratio (%) n = 1 [5]: 0.0%; ASMS ratio (%) n = 2 [6]: 0.0%
CCOc1cccc(-c2csc(C(=O)N3CCN(c4ccc(C(=O)NS(=O)(=O)C(C)(C)C)cc4)CC3)c2)c1 [Compound B2L023-01, N-tert-Butylsulfonyl-4-[4-[4-(3-ethoxyphenyl)thiophene-2-carbonyl]piperazin-1-yl]benzamide]			0.0	0.0	
CCOc1cccc(-c2ccc(C(=O)N3CCN(c4ccc(C(=O)NS(=O)(=O)C(C)(C)C)nn4)CC3)c3ccccc23)c1 [Compound B2L013-01]			0.0	0.0	
CCOc1cccc(-c2ccc(CN3CCN(c4ccc(C(=O)NS(=O)(=O)CCC(F)(F)F)cc4)CC3)c(OC)c2)c1 [Compound B2N053-01, 4-[4-[[4-(3-Ethoxyphenyl)-2-methoxyphenyl]methyl]piperazin-1-yl]-N-(3,3,3-trifluoropropylsulfonyl)benzamide]	0.0	1.4			
CCOc1cccc(-c2cnn(-c3cc(C(=O)N4CCN(c5ccc(C(=O)NS(=O)(=O)C(C)(C)C)nn5)CC4)cc(C(F)(F)F)c3)c2)c1 [Compound B2L021-01, N-tert-Butylsulfonyl-6-[4-[3-[4-(3-ethoxyphenyl)pyrazol-1-yl]-5-(trifluoromethyl)benzoyl]piperazin-1-yl]pyridazine-3-carboxamide]			0.0	−14.9	
CCOc1cccc(-c2cc(C(=O)N3CCN(c4ccc(C(=O)NS(=O)(=O)C(C)(C)C)nn4)CC3)cc(C(F)(F)F)c2)c1 [Compound B2L017-01, N-tert-Butylsulfonyl-6-[4-[3-(3-ethoxyphenyl)-5-(trifluoromethyl)benzoyl]piperazin-1-yl]pyridazine-3-carboxamide]			0.0	0.0	
CCOc1cncc(-c2cc(CN3CCN(c4ccc(C(=O)NS(=O)(=O)CCC(F)(F)F)nn4)CC3)cc(C(F)(F)F)c2)c1 [Compound B2N088-01, 6-[4-[[3-(5-Ethoxypyridin-3-yl)-5-(trifluoromethyl)phenyl]methyl]piperazin-1-yl]-N-(3,3,3-trifluoropropylsulfonyl)pyridazine-3-carboxamide]	0.0	0.0			
CCCNC(=O)c1ccc(N2CCN(C(=O)c3ccc(-c4cncc(OCC)c4)c(C)c3)CC2)cc1 [Compound B1M026-01]					ASMS ratio (%) n = 1 [5]: 0.9%; ASMS ratio (%) n = 2 [6]: 0.9%
CCOc1cccc(-c2cc(CN3CCN(c4ccc(C(=O)NS(=O)(=O)c5ccc(NCCSc6ccccc6)c(C(F)(F)F)c5)nn4)CC3)cc(OC(C)C)c2)c1 [Compound B2R083-01, 6-[4-[[3-(3-Ethoxyphenyl)-5-propan-2-yloxyphenyl]methyl]piperazin-1-yl]-N-[4-(2-phenylsulfanylethylamino)-3-(trifluoromethyl)phenyl]sulfonylpyridazine-3-carboxamide]	31.9	−11.1			
CCOc1cccc(-c2cc(CN3CCN(c4ccc(C(=O)NS(=O)(=O)CCC(F)(F)F)cc4)CC3)cc(C(F)(F)F)c2)c1 [Compound B2N061-01]	0.0	0.0			
CCOc1cncc(C#Cc2cc(C(=O)N3CCN(c4ccc(C(=O)NS(=O)(=O)c5ccc(NCCSc6ccccc6)c(C(F)(F)F)c5)nn4)CC3)cc(C(F)(F)F)c2)c1 [Compound B2R020-01, 6-[4-[3-[2-(5-Ethoxypyridin-3-yl)ethynyl]-5-(trifluoromethyl)benzoyl]piperazin-1-yl]-N-[4-(2-phenylsulfanylethylamino)-3-(trifluoromethyl)phenyl]sulfonylpyridazine-3-carboxamide]	10.8	−17.7			
CCOc1cncc(-c2ccccc2CCC(=O)N2CCN(c3ccc(C(=O)NS(=O)(=O)c4ccc(NCCSc5ccccc5)c(C(F)(F)F)c4)cc3)CC2)c1 [Compound B2R034-01, 4-[4-[3-[2-(5-Ethoxypyridin-3-yl)phenyl]propanoyl]piperazin-1-yl]-N-[4-(2-phenylsulfanylethylamino)-3-(trifluoromethyl)phenyl]sulfonylbenzamide]	0.1	−1.3			
CCOc1cccc(-c2ccccc2CCC(=O)N2CCN(c3ccc(C(=O)NS(=O)(=O)c4ccc(NCCSc5ccccc5)c(C(F)(F)F)c4)nn3)CC2)c1 [Compound B2R011-01, 6-[4-[3-[2-(3-Ethoxyphenyl)phenyl]propanoyl]piperazin-1-yl]-N-[4-(2-phenylsulfanylethylamino)-3-(trifluoromethyl)phenyl]sulfonylpyridazine-3-carboxamide]	17.7	−1.3			
CCOc1cncc(-c2ccccc2CCC(=O)N2CCN(c3ccc(C(=O)NS(=O)(=O)CCC(F)(F)F)nn3)CC2)c1 [Compound B2N012-01, 6-[4-[3-[2-(5-Ethoxypyridin-3-yl)phenyl]propanoyl]piperazin-1-yl]-N-(3,3,3-trifluoropropylsulfonyl)pyridazine-3-carboxamide]	0.0	0.0			
CCOc1cccc(C#Cc2ccccc2C(=O)N2CCN(c3ccc(C(=O)NS(=O)(=O)C(C)(C)C)cc3)CC2)c1 [Compound B2L029-01, N-tert-Butylsulfonyl-4-[4-[2-[2-(3-ethoxyphenyl)ethynyl]benzoyl]piperazin-1-yl]benzamide]			0.0		
CCCNC(=O)c1ccc(N2CCN(C(=O)c3cc(-c4cccc(OCC)c4)cc(C(F)(F)F)c3)CC2)nn1 [Compound B1M017-01]					ASMS ratio (%) n = 1 [5]: −0.1%; ASMS ratio (%) n = 2 [6]: 0.3%
